In general, IC50 refers to the concentration that gives 50% inhibition. A high value points to lower potency.

Counter-ions that a name gives are not always drawn.

Chain of PDE10A (Homo sapiens, UniProt Q9Y233) (Q9Y233 whole entry, looked up): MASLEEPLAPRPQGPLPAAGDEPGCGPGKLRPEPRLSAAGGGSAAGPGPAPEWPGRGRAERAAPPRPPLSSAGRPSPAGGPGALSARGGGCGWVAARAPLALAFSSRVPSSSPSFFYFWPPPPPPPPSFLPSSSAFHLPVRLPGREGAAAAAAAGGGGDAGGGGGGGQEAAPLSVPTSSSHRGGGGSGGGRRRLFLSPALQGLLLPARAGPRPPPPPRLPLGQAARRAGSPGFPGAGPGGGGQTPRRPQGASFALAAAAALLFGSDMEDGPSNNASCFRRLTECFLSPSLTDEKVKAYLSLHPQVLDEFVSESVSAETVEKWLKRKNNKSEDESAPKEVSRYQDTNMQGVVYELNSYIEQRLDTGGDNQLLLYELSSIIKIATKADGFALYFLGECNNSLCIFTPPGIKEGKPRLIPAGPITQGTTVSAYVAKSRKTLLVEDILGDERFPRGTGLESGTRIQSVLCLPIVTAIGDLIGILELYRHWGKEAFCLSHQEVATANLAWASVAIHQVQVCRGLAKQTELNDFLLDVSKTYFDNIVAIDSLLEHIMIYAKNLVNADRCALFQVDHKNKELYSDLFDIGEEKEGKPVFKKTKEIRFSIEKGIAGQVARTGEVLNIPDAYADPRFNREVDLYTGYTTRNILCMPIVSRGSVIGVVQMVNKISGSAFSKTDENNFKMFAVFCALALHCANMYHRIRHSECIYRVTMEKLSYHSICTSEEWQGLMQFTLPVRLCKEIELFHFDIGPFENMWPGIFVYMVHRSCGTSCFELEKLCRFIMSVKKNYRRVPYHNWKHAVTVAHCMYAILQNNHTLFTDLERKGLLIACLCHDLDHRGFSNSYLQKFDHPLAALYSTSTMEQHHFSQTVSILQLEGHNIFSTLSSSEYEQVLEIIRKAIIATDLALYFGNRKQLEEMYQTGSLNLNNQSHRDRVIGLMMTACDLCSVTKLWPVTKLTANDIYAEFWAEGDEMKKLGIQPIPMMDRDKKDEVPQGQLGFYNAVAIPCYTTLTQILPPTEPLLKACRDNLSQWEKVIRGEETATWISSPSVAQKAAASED

One test has as its target PDE10A. Kind of test: Phosphodiesterase assay (TR-FRET, LANCE cAMP kit). The following applies: PDE10A (BPS Bioscience) 200 pg/well, biotin-cAMP substrate, 60 min at room temperature. The format is biochemical. As for the experimental part:
(§1) The PDE assay is based on the homogenous time-resolved fluorescence resonance energy transfer (TR-FRET) technology (LANCE® from Perkin Elmer). […] When there is PDE activity, resulting in the degradation of the cyclic nucleotide, the complex is not formed and a decrease in signal is observed.
(§2) The phosphodiesterase assay was developed using the LANCE® cAMP kit (PerkinElmer). The assay buffer contained HBSS with 5 mM HEPES, 0.1% BSA, and 1.5 mM MgCl2, pH 7.4. PDE10A (BPS Bioscience) was used at 200 pg/well (with a specific activity of 3200 pmole/min/μg with assay conditions: 10 mM Tris-HCl, pH7.4, 10 mM MgCl2, 1 mM MnCl2, 200 μM cAMP, 2.5 kU 5′ nucleotidase, 37° C., 20 min). […] Chemical compounds were dissolved in DMSO (final concentration 2% (v/v)).
(§3) In a 384-well plate, 2 μL inhibitor and 3 μL PDE were added to the well, followed by the addition of 5 μl substrate biotinylated cAMP (1:5). After 60 min incubation at room temperature, 10 μL of assay detection mixture was added to the assay plate. After 1 h at room temperature, the signal was measured on EnVision™ (Perkin Elmer).
In general terms: TR-FRET usually uses a lanthanide donor and a delayed reading to cut background.
As to `COc1cc2c(C)nc(O)c(Cc3cnc4cccc(OC)c4c3)c2cc1OC` [Compound 27, 6,7-Dimethoxy-4-((5-methoxyquinolin-3-yl)methyl)-1-methylisoquinolin-3-ol dihydrochloride], the half-maximal inhibitory concentration (IC50) was determined as 17 nM. In turn, `CCCc1nc(O)c(Cc2cc3cc(OC)c(F)cc3nc2NCC)c2cc(OC)c(OC)cc12` [Compound 70, 4-((2-(Ethylamino)-7-fluoro-6-methoxyquinolin-3-yl)methyl)-6,7-dimethoxy-1-propylisoquinolin-3-ol dihydrochloride] yielded a 50% inhibitory concentration (IC50) of 2.4 nM. Same read-out and setting: next, `CCCc1nc(N)c(Cc2ccc3oc4ccccc4c3c2)c2cc(OC)c(OC)cc12` [Compound 65, 4-(dibenzo[b,d]furan-2-ylmethyl)-6,7-dimethoxy-1-propylisoquinolin-3-amine hydrochloride]: 967 nM.

`CCNc1nc2ccc(OC)cc2cc1Cc1c(O)nc(CNC(C)=O)c2cc(OC)c(OC)cc12` [Compound 57, N-((4-((2-(ethylamino)-6-methoxyquinolin-3-yl)methyl)-3-hydroxy-6,7-dimethoxyisoquinolin-1-yl)methyl)acetamide dihydrochloride] registered an IC50 of 47 nM. Same read-out and setting: next, `CCNc1nc2ccc(OCC)cc2cc1Cc1c(O)nc(C(C)C)c2cc(OC)c(OC)cc12` [Compound 46, 4-((6-Ethoxy-2-(ethylamino)quinolin-3-yl)methyl)-1-isopropyl-6,7-dimethoxyisoquinolin-3-ol dihydrochloride]: 29 nM; `CCc1nc(O)c(Cc2cccc(-c3ccc(OC)cc3)c2)c2cc(OC)c(OC)cc12` [Compound 9, 1-ethyl-6,7-dimethoxy-4-((4′-methoxy-[1,1′-biphenyl]-3-yl)methyl)isoquinolin-3-ol hydrochloride]: 10600 nM. The same measure, in the same setting: for `COc1cc2c(C)nc(O)c(Cc3ccc4ccccc4n3)c2cc1OC` [Compound 23, 6,7-dimethoxy-1-methyl-4-(quinolin-2-ylmethyl)isoquinolin-3-ol dihydrochloride] the value was 130 nM; for `CCc1nc(O)c(Cc2cc3cc(OCC4CC4)ccc3nc2NCCNC(C)=O)c2cc(OC)c(OC)cc12` [Compound 87, N-(2-((6-(cyclopropylmethoxy)-3-((1-ethyl-3-hydroxy-6,7-dimethoxyisoquinolin-4-yl)methyl)quinolin-2-yl)amino)ethyl)acetamide dihydrochloride], 3.9 nM. On the same count and under the same terms, for `CCCc1nc(O)c(Cc2cc3cc(OC)ccc3nc2NC(C)C)c2cc(OC)c(OC)cc12` [Compound 53, 4-((2-(Isopropylamino)-6-methoxyquinolin-3-yl)methyl)-6,7-dimethoxy-1-propylisoquinolin-3-ol dihydrochloride] the value was 0.8 nM; for `CCc1nc(O)c(Cc2cc3cc(OC)ccc3nc2NCCNC(C)=O)c2cc(OC)c(OC)cc12` [Compound 69, N-(2-(3-((1-Ethyl-3-hydroxy-6,7-dimethoxyisoquinolin-4-yl)methyl)-6-methoxyquinolin-2-ylamino)ethyl)acetamide dihydrochloride], 1.5 nM; for `CNc1nc2ccc(C)cc2cc1Cc1c(O)nc(C)c2cc(OC)c(OC)cc12` [Compound 33, 6,7-Dimethoxy-1-methyl-4-((6-methyl-2-(methylamino)quinolin-3-yl)methyl)isoquinolin-3-ol dihydrochloride], 13 nM.

`CCNc1nc2ccc(OC)cc2cc1Cc1c(O)nc(COC)c2cc(OC)c(OC)cc12` [Compound 67, 4-((2-(ethylamino)-6-methoxyquinolin-3-yl)methyl)-6,7-dimethoxy-1-(methoxymethyl)isoquinolin-3-ol dihydrochloride] gave a 50% inhibitory concentration (IC50) of 1.8 nM. Still for that read-out and setting: for `CCCc1nc(O)c(Cc2cnc3cc(OC)ccc3c2)c2cc(OC)c(OC)cc12` [Compound 32, 6,7-dimethoxy-4-((7-methoxyquinolin-3-yl)methyl)-1-propylisoquinolin-3-ol dihydrochloride] the value was 4 nM.

Compound `CCCc1nc(O)c(Cc2cc3cc4c(cc3nc2N(C)C)OCO4)c2cc(OC)c(OC)cc12` [Compound 63, 4-((6-(dimethylamino)-[1,3]dioxolo[4,5-g]quinolin-7-yl)methyl)-6,7-dimethoxy-1-propylisoquinolin-3-ol dihydrochloride] had an IC50 of 560 nM. Regarding `COc1ccc(-c2cncc(Cc3c(O)nc(C)c4cc(OC)c(OC)cc34)c2)cc1` [Compound 16, 6,7-dimethoxy-4-((5-(4-methoxyphenyl)pyridin-3-yl)methyl)-1-methylisoquinolin-3-ol dihydrochloride], half-maximal inhibition (IC50) was put at 69 nM. On the same count and under the same terms, for `CCc1nc(O)c(Cc2cccc(-c3cccc(N)c3)c2)c2cc(OC)c(OC)cc12` [Compound 10, 4-((3′-amino-[1,1′-biphenyl]-3-yl)methyl)-1-ethyl-6,7-dimethoxyisoquinolin-3-ol dihydrochloride] the value was 52 nM; for `CCc1nc(O)c(Cc2cc3cc(OC)ccc3nc2N=[N+]=[N-])c2cc(OC)c(OC)cc12` [Compound 68, 4-((2-Azido-6-methoxyquinolin-3-yl)methyl)-1-ethyl-6,7-dimethoxyisoquinolin-3-ol dihydrochloride], 200 nM. Still for that read-out and setting: next, `COc1cc2c(C)nc(O)c(Cc3cccc(-c4ccncc4)n3)c2cc1OC` [Compound 14, 4-([2,4′-bipyridin]-6-ylmethyl)-6,7-dimethoxy-1-methylisoquinolin-3-ol trihydrochloride]: 100 nM; `CCCc1nc(O)c(Cc2ccc3ccccc3c2)c2cc(OC)c(OC)cc12` [Compound 20, 6,7-dimethoxy-4-(naphthalen-2-ylmethyl)-1-propylisoquinolin-3-ol hydrochloride]: 34 nM; `CCNc1nc2ccc(OC)cc2cc1Cc1c(OC(C)=O)nc(CNC(C)=O)c2cc(OC)c(OC)cc12` [Compound 56, 1-(Acetamidomethyl)-4-((2-(ethylamino)-6-methoxyquinolin-3-yl)methyl)-6,7-dimethoxyisoquinolin-3-yl acetate]: 175 nM.

Take `CCc1nc(O)c(Cc2cc3cc4c(cc3nc2NC)OCO4)c2cc(OC)c(OC)cc12` [Compound 61, 1-ethyl-6,7-dimethoxy-4-((6-(methylamino)-[1,3]-dioxolo[4,5-g]quinolin-7-yl)methyl)isoquinolin-3-ol dihydrochloride]: the IC50 turned out to be 2.2 nM. Same read-out and setting: next, `CCCc1nc(O)c(Cc2cc3cc(OC)ccc3nc2NCC(F)(F)F)c2cc(OC)c(OC)cc12` [Compound 54, 6,7-dimethoxy-4-((6-methoxy-2-((2,2,2-trifluoroethyl)amino)quinolin-3-yl)methyl)-1-propylisoquinolin-3-ol dihydrochloride]: 23 nM.

The next test concerns the target PDE10A (Homo sapiens, UniProt Q9Y233). Kind of test: Phosphodiesterase assay (TR-FRET, LANCE cAMP kit). The format is biochemical. The following applies: PDE10A (BPS Bioscience) 200 pg/well, biotin-cAMP substrate, 60 min at room temperature. The procedure: as §1, §2, §3
The compound `COc1cc2c(C)nc(O)c(Cc3ccnc4ccccc34)c2cc1OC` [Compound 25, 6,7-Dimethoxy-1-methyl-4-(quinolin-4-ylmethyl)isoquinolin-3-ol dihydrochloride] had an IC50 of 265 nM.

In the case of `CCc1nc(O)c(Cc2cc3cc(OC)ccc3nc2NCC(F)(F)F)c2cc(OC)c(OC)cc12` [Compound 45, 1-ethyl-6,7-dimethoxy-4-((6-methoxy-2-(2,2,2-trifluoroethylamino)quinolin-3-yl)methyl)isoquinolin-3-ol dihydrochloride], the IC50 came out at 30 nM. The same measure, in the same setting: for `COc1cc2c(C)nc(O)c(Cc3cccc(Oc4ccccc4)c3)c2cc1OC` [Compound 4, 6,7-dimethoxy-1-methyl-4-(3-phenoxybenzyl)isoquinolin-3-ol hydrochloride] the value was 140 nM. The same measure, in the same setting: for `CCCc1nc(O)c(Cc2cc3cc(OCC)c(F)cc3nc2NCC)c2cc(OC)c(OC)cc12` [Compound 86, 4-((6-Ethoxy-2-(ethylamino)-7-fluoroquinolin-3-yl)methyl)-6,7-dimethoxy-1-propylisoquinolin-3-ol dihydrochloride] the value was 0.3 nM; for `CCc1nc(O)c(Cc2ccc3ccccc3c2)c2cc(OC)c(OC)cc12` [Compound 19, 1-ethyl-6,7-dimethoxy-4-(naphthalen-2-ylmethyl)isoquinolin-3-ol hydrochloride], 11 nM.

In the case of `CCNc1nc2ccc(OC)cc2cc1Cc1c(O)nc(CNS(C)(=O)=O)c2cc(OC)c(OC)cc12` [Compound 58, N-((4-((2-(ethylamino)-6-methoxyquinolin-3-yl)methyl)-3-hydroxy-6,7-dimethoxyisoquinolin-1-yl)methyl)methanesulfonamide dihydrochloride], the IC50 worked out at 221 nM. `COc1ccc(-c2cccc(Cc3c(O)nc(C)c4cc(OC)c(OC)cc34)n2)cc1` [Compound 13, 6,7-dimethoxy-4-((6-(4-methoxyphenyl)pyridin-2-yl)methyl)-1-methylisoquinolin-3-ol dihydrochloride]: half-maximal inhibition (IC50) required 50 nM.

`CCCc1nc(O)c(Cc2ccc3nc(C)ccc3c2)c2cc(OC)c(OC)cc12` [Compound 80, 6,7-dimethoxy-4-((2-methylquinolin-6-yl)methyl)-1-propylisoquinolin-3-ol dihydrochloride] had an IC50 of 3.2 nM. The same measure, in the same setting: next, `CCCc1nc(O)c(Cc2cc3cc(C)ccc3nc2NCC)c2cc(OC)c(OC)cc12` [Compound 35, 4-((2-(Ethylamino)-6-methylquinolin-3-yl)methyl)-6,7-dimethoxy-1-propylisoquinolin-3-ol dihydrochloride]: 1.5 nM.

Source of the values: patent publication US8772316B2, “Substituted 6,7-dialkoxy-3-isoquinolinol derivatives as inhibitors of phosphodiesterase 10 (PDE10A)” (Allergan, Inc., priority 2011, dated 2014).
